Experiments:
[1] = biological target: T1, Porcine ventricle myofibrils (ventricular myosin ATPase) (Sus scrofa, UniProt P79293); experiment: Myofibril ATPase assay, porcine ventricle myofibrils; format: biochemical, porcine (Yucatan minipigs)
T1 construct: Myofibrils from porcine cardiac muscle was isolated from the left ventricle of Yucatan minipigs; tissue Exemplar Genetics; host or cells: left ventricle of Yucatan minipigs, myofibrils prepared in house
Procedure, shortened: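 Test compounds acted on myofibrils isolated from the left ventricle of Yucatan minipigs. ADP formation was coupled via pyruvate kinase/lactate dehydrogenase to NADH oxidation, monitored kinetically at 340 nm over 75 min. Rates relative to vehicle were fitted with a 4-parameter logistic model, reported as Y75 (25% inhibition) or Y125 (activation) concentrations.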

[2] = tested on: Porcine atria myofibrils (atrial myosin ATPase); experiment: Myofibril ATPase assay, porcine atria myofibrils; format: biochemical
Procedure, shortened: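 Values are Y75 (concentration cutting ATPase activity to 75% of vehicle) or Y125 (raising it to 125%), taken from 4-parameter logistic fits. Rates come from NADH disappearance at 340 nm in a PK/LDH-coupled assay with porcine atria myofibrils.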

[3] = tested on: Rabbit Psoas myofibrils (skeletal myosin ATPase); experiment: Myofibril ATPase assay, rabbit psoas (skeletal) myofibrils; format: biochemical
Procedure, shortened: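 Myofibrils homogenized in Triton X-100 buffer were assayed in pH 7.0 PIPES with defined Ca2+/EGTA. Myosin-driven ADP formation was coupled to NADH oxidation, with depletion monitored at 340 nm. Each value is the concentration that lowers activity to 75% of vehicle or, for activators, raises it to 125%.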

[4] = porcine ventricle myofibrils, Y75 value
[5] = porcine atria myofibrils, Y75 value (75% activity relative to no compound)
[6] = rabbit psoas myofibrils, Y75 value
[7] = Y75 value (no ‡ mark), porcine ventricle myofibrils
[8] = Y75 value (no ‡ mark), porcine atria myofibrils
[9] = Y75 value (no ‡ mark), rabbit psoas myofibrils
[10] = ‡ Y125 value, not a Y75 value (125% activity relative to no compound), rabbit psoas myofibrils

T1 sequence (P79293 whole entry): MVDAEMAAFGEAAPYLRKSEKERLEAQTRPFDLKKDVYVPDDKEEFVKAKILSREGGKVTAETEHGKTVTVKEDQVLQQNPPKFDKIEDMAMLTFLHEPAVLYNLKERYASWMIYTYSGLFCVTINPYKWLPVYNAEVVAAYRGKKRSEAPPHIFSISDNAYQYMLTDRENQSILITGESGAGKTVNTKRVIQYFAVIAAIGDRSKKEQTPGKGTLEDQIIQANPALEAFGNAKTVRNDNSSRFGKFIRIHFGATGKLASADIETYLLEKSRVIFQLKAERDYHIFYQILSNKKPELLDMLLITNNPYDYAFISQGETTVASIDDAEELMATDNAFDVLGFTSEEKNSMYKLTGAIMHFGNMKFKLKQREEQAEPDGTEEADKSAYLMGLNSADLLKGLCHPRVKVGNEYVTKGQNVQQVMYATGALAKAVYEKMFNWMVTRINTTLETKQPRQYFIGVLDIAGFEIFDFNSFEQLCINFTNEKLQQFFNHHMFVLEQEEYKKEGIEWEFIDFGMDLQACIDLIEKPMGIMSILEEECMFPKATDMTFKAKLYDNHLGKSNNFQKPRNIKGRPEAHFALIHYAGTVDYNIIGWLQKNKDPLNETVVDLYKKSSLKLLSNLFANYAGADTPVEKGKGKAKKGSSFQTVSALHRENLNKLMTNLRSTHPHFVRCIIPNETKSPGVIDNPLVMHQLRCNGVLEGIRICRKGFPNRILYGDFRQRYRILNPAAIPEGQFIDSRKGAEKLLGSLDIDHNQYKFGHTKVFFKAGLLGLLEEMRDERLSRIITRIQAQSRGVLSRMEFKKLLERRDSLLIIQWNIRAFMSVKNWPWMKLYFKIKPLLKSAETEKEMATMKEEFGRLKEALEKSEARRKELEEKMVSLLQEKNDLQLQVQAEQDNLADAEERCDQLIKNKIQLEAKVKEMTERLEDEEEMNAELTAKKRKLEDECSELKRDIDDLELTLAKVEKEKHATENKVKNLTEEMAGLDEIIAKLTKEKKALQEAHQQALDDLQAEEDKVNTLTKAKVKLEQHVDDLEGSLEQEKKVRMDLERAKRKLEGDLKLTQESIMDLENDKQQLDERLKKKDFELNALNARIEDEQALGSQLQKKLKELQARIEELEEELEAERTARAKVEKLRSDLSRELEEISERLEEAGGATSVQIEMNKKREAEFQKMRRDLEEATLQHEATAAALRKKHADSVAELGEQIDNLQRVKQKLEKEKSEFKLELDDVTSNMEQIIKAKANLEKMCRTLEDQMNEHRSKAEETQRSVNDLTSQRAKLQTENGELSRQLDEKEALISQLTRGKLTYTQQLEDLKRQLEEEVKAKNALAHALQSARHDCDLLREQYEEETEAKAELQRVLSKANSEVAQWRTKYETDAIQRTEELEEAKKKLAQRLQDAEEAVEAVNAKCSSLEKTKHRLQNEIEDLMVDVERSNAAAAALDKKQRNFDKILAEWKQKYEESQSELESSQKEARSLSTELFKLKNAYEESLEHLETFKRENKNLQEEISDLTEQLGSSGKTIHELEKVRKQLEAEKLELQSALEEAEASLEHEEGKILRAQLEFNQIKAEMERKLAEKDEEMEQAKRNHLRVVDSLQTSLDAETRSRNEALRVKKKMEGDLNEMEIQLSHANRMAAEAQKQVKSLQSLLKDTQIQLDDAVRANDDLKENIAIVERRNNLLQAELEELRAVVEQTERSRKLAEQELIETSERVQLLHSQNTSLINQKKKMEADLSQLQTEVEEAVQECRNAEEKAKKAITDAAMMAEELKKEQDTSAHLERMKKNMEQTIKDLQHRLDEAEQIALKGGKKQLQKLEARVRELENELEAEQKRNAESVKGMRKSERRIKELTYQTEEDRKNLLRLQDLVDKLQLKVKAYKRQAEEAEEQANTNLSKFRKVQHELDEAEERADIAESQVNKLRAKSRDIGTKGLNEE

Structure (SMILES) | Ventricular EC25 [1, 4] [µM] | Atrial EC25 [2, 5] [µM] | Skeletal EC25 [3, 6] [µM] | Ventricular EC25 [1, 7] [µM] | Atrial EC25 [2, 8] [µM] | Skeletal EC25 [3, 9] [µM] | further results
C[C@H](NC(=O)Cc1cc2c(F)c(F)ccc2[nH]c1=O)c1cc(C#N)c(F)s1 (single isomer, unassigned) [compound 4003] |  |  |  |  |  |  | Ventricular EC25 ([1]; Y75 value: concentration required to reduce myosin ATP-ase activity by 25%, Porcine Ventricle Prep pCa 25 GEOM_MEAN): 100.00 µM; Atrial EC25 ([2]; Y75 value: concentration required to reduce myosin ATP-ase activity by 25%, Porcine Atria Prep pCa 25 GEOM_MEAN): 100.00 µM; Skeletal EC25 ([3]; Y75 value: concentration required to reduce myosin ATP-ase activity by 25%, Rabbit Psoas Prep pCa 25 GEOM_MEAN): 1.06 µM
Cc1nccc2[nH]c(=O)c([C@@H](C)C(=O)N[C@H](C)c3ncc(C#N)cc3F)c(C)c12 (single isomer, unassigned) [compound 191] | 100.00 | 1.73 | 4.04 |  |  |  | 
Cc1c(CC(=O)N[C@@H](C)c2ccc(F)cc2F)c(=O)[nH]c2ccnc(OCC(C)C)c12 [compound 371] | 100.00 | 3.04 | 0.37 |  |  |  | 
C[C@@H](NC(=O)Cc1cc2c(F)cccc2[nH]c1=O)c1ccc(C#N)cn1 [compound 47] |  |  |  | 4.80 | 4.48 | 0.43 | 
CCNc1nccc2[nH]c(=O)c(CC(=O)N[C@@H](C)c3ccc(F)cc3F)c(C)c12 [compound 351] | 0.97 | 0.14 | 0.06 |  |  |  | 
Cc1c(F)ccc2[nH]c(=O)c(C(F)(F)C(=O)N[C@@H](C)c3ncc(C#N)cn3)c(C)c12 (single isomer, unassigned) [compound 4832] |  |  |  | 0.58 | 0.12 | 0.17 | 
Cc1nc(C#N)ncc1[C@H](C)NC(=O)Cc1c(C)c2cc(F)ccc2[nH]c1=O [compound 1053] |  |  |  | 0.22 | 0.12 | 0.04 | 
Cc1c(CC(=O)N[C@@H](C)c2ncc(C#N)cc2F)c(=O)[nH]c2ccnc(C#N)c12 (single isomer, unassigned) [compound 285] | 0.16 | 0.28 | 0.02 |  |  |  | 
Cc1nccc2[nH]c(=O)c(CC(=O)N[C@@H](C)c3ccc(C#N)nn3)c(C)c12 [compound 485] | 100.00 | 48.27 | 100.00 |  |  |  | 
Cc1c(CC(=O)N[C@H](CO)c2ncccc2F)c(=O)[nH]c2ccnc(C#N)c12 (single isomer, unassigned) [compound 235] | 100.00 | 100.00 | 100.00 |  |  |  | 
Cc1c(CC(=O)N[C@@H](C)c2ccc(C#N)cn2)c(=O)[nH]c2ccc(F)c(C3CC3)c12 [compound 24] |  |  |  | 0.21 | 0.05 | 0.04 | 
C[C@H](NC(=O)Cc1cc2c(F)cccc2[nH]c1=O)c1ccc(F)cc1F [compound 131] |  |  |  | 0.81 | 0.07 | 0.02 | 
Cc1c(CC(=O)N[C@@H](C)c2ccc(F)cc2F)c(=O)[nH]c2ccc(F)c(Cl)c12 [compound 85] |  |  |  | 0.07 | 0.03 | 0.02 | 
C[C@H](NC(=O)Cc1c(C2CC2)c2cnccc2[nH]c1=O)c1ccc(F)cc1F [compound 444] | 20.82 | 1.14 | 0.17 |  |  |  | 
Cc1c(O)ccc2[nH]c(=O)c(CC(=O)N[C@@H](C)c3ncc(F)cc3F)cc12 (single isomer, unassigned) [compound 78] |  |  |  | 100.00 | 7.08 | 6.60 | 
C[C@@H](NC(=O)C(F)(F)c1cc2c(F)c(F)ccc2[nH]c1=O)c1cc(C#N)ccn1 (single isomer, unassigned) [compound 2557] |  |  |  | 7.27 | 3.66 | 6.04 | 

Structure (SMILES) | Ventricular EC25 [1, 4] [µM] | Atrial EC25 [2, 5] [µM] | Skeletal EC25 [3, 6] [µM] | Ventricular EC25 [1, 7] [µM] | Atrial EC25 [2, 8] [µM] | Skeletal EC25 [3, 9] [µM] | further results
C[C@H](NC(=O)Cc1cc2cc(F)c(F)cc2[nH]c1=O)c1cnc(C#N)cn1 [compound 1099] |  |  |  | 49.75 | 7.61 | 4.41 | 
Cc1nccc2[nH]c(=O)c(CC(=O)Nc3c[nH]c4cc(F)cc(F)c34)c(C)c12 [compound 228] | 100.00 | 100.00 | 100.00 |  |  |  | 
Cc1c(F)ccc2[nH]c(=O)c(C(F)(F)C(=O)N[C@@H](C)c3ncc(C#N)cc3F)c(C#N)c12 (single isomer, unassigned) [compound 2520] |  |  |  | 0.21 | 0.14 | 0.07 | 
Cc1nccc2[nH]c(=O)c(C(F)(F)C(=O)N[C@@H](CO)c3ncc(C#N)cc3F)c(C)c12 (single isomer, unassigned) [compound 3523] | 21.66 | 9.76 | 8.73 |  |  |  | 
Cc1c(CC(=O)N[C@@H](C)c2ccc(C#N)cc2F)c(=O)[nH]c2ccc(F)c(C3CC3)c12 [compound 70] |  |  |  | 100.00 | 100.00 | 0.03 | 
C[C@@H](NC(=O)Cc1cc2c(F)c(F)ccc2[nH]c1=O)c1cnc(C#N)cn1 (single isomer, unassigned) [compound 11] |  |  |  | 0.15 | 0.05 | 0.07 | 
Cc1cccc([C@H](CO)NC(=O)Cc2c(C)c3c(C)nccc3[nH]c2=O)c1 (single isomer, unassigned) [compound 313] | 100.00 | 100.00 | 100.00 |  |  |  | 
Cc1nccc2[nH]c(=O)c(CC(=O)N[C@@H](C)c3cccnc3O)c(C)c12 (single isomer, unassigned) [compound 307] | 100.00 | 100.00 | 100.00 |  |  |  | 
Cc1c(C(C)C(=O)N[C@@H](C)c2ccc(F)cc2F)c(=O)[nH]c2ccnc(C#N)c12 (stereo partly drawn) [compound 363] | 2.83 | 0.36 | 0.04 |  |  |  | 
C[C@@H](NC(=O)Cc1cc2c(C#N)cccc2[nH]c1=O)c1ncc(C#N)cn1 (single isomer, unassigned) [compound 2037] |  |  |  | 5.31 | 2.88 | 0.79 | 
Cc1nccc2[nH]c(=O)c([C@H](C)C(=O)N[C@@H](C)c3ncc(C#N)cc3F)c(C)c12 (single isomer, unassigned) [compound 194] | 100.00 | 5.87 | 1.22 |  |  |  | 
Cc1cccc([C@H](C)NC(=O)Cc2c(C)c3c(C)nccc3[nH]c2=O)c1 (single isomer, unassigned) [compound 340] | 100.00 | 36.97 | 100.00 |  |  |  | 
C[C@H](NC(=O)Cc1cc2c(C#N)c(F)ccc2[nH]c1=O)c1ncc(C#N)cn1 (single isomer, unassigned) [compound 2018] |  |  |  |  |  |  | Ventricular EC25 ([1]; ‡ Y125 value, not a Y75 value (125% activity relative to no compound), porcine ventricle myofibrils): 100.00‡ μM; Atrial EC25 ([2]; ‡ Y125 value, not a Y75 value (125% activity relative to no compound), porcine atria myofibrils): 100.00‡ μM; Skeletal EC25 [3, 10]: 100.00‡ μM
Cc1c(C2(C(=O)N[C@H](C)c3ncc(C#N)cc3F)CC2)c(=O)[nH]c2ccc(F)c(C#N)c12 (single isomer, unassigned) [compound 2523] |  |  |  | 0.74 | 0.19 |  | Skeletal EC25 [3, 10]: 100.00‡ μM
COc1ccc2[nH]c(=O)c(CC(=O)N[C@@H](C)c3ncc(F)cc3F)cc2c1C (single isomer, unassigned) [compound 80] |  |  |  | 100.00 | 100.00 | 18.54 | 
